Like-named read-outs stand apart in the source and are kept apart here.
Tests used:
Assay in all cases: biochemical
[1] = biological target: TcTryS (Trypanosoma cruzi trypanothione synthetase) (Trypanosoma cruzi, UniProt Q9GT49); format: biochemical
[2] = biological target: LiTryS (Leishmania infantum trypanothione synthetase) (Leishmania infantum, UniProt A4I2Z3); format: biochemical
[3] = biological target: TbTryS (Trypanosoma brucei trypanothione synthetase) (Trypanosoma brucei brucei, UniProt Q8IEX1)
Chain of TbTryS (Trypanosoma brucei trypanothione synthetase) (Q8IEX1 1-627): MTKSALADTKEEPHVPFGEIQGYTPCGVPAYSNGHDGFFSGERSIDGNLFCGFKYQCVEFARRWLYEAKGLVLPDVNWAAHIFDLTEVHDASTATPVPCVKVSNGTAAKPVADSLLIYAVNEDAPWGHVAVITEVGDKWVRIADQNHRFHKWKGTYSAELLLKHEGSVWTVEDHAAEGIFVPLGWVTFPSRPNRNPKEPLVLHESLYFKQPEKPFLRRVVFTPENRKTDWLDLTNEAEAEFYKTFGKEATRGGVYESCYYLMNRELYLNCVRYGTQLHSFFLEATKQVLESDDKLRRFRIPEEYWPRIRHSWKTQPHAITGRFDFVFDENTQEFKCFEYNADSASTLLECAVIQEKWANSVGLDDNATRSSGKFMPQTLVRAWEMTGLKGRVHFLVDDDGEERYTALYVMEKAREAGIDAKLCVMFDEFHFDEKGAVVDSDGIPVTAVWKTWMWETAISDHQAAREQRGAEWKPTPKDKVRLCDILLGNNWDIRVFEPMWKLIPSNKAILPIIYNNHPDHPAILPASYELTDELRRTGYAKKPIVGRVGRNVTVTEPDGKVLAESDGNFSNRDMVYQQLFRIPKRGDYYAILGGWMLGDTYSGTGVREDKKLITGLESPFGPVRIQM

Chain of TcTryS (Trypanosoma cruzi trypanothione synthetase) (Q9GT49 whole entry): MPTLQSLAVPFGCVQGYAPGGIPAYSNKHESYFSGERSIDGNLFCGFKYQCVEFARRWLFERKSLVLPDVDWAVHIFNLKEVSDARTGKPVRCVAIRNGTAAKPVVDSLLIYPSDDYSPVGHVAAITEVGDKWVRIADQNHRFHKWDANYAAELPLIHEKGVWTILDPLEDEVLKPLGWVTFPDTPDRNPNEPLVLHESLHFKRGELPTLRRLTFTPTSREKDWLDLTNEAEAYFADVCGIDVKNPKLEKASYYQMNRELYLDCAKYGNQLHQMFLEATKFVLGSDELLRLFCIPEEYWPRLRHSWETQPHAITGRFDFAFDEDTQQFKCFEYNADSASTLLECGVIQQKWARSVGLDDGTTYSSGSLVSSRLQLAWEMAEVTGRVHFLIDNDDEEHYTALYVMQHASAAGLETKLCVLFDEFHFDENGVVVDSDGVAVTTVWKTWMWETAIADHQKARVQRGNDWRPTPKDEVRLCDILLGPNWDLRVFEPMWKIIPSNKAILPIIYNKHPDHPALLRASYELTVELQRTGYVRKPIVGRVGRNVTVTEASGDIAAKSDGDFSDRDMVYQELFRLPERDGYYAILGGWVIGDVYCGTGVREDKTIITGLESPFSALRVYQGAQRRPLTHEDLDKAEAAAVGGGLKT
Chain of LiTryS (Leishmania infantum trypanothione synthetase) (A4I2Z3 1-652): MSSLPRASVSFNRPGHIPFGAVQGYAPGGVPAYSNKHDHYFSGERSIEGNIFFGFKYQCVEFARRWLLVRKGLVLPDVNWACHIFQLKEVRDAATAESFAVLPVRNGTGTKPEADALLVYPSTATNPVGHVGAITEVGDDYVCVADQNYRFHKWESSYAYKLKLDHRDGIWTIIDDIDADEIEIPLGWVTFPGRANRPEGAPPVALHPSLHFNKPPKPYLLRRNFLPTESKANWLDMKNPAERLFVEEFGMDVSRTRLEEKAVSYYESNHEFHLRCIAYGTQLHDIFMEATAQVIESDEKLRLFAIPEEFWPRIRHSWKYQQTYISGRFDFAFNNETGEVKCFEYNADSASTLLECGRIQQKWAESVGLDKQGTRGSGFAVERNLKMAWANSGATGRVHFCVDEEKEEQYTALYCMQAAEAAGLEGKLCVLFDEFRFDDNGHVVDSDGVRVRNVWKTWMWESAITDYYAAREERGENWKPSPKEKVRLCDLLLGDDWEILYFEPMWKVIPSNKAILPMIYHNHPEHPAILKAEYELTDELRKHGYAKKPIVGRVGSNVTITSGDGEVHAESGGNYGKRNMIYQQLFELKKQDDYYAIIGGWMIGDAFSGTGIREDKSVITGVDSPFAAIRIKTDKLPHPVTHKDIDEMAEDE

SMILES | TcTryS Activity ± 2σn-1 (%) [1] | LiTryS Activity ± 2σn-1 (%) [2] | TbTryS Activity ± 2σn-1 (%) [3] | also measured
[O-][n+]1onc2cc(Br)ccc21 [Compound J33] | 98.1 ± 4.0; 3% | 76.0 ± 6.8; 3% | 96.5 ± 6.3; 3% | –
COc1ccc2c(c1)no[n+]2[O-] [Compound J14] | 77.2 ± 4.4; 4% | 96.1 ± 7.3; 4% | 93.1 ± 5.6; 4% | –
COc1cc(CNCCCNCc2ccc(O)c(OC)c2)ccc1O [APC1-82] | 92.9 ± 5.6; 4% | 84.9 ± 0.9; 4% | 88.1 ± 4.4; 3% | –
COc1cc(CNCCCCCCNCc2ccc(O)c(OC)c2)ccc1O [APC1-121] | 92.9 ± 5.0; 4% | 95.0 ± 7.8; 4% | 91.1 ± 4.8; 3% | –
COc1cc(CNCCCCCCCCCCNCc2ccc(O)c(OC)c2)ccc1O [APC1-123] | 88.8 ± 6.5; 4% | 94.3 ± 8.2; 3% | 86.0 ± 5.5; 3% | –
[O-][n+]1onc2cc(C(F)(F)F)ccc21 [Compound J25] | 81.8 ± 2.2; 3% | 110.7 ± 2.4; 3% | 98.4 ± 4.2; 3% | –
COc1ccc(C2C(C(=O)c3ccc4c(c3)OCCO4)=C(O)C(=O)N2c2nc3ccc(Cl)cc3s2)cc1 (centres unmarked) [AD84] | 98.7 ± 5.1; 4% | – | – | remaining activity at 30 µM ([1]; read-out: TcTryS Activity ± 2σn-1 (%)): 98.7 ± 5.1%; activity at 30 µM ([2]; read-out: LiTryS Activity ± 2σn-1 (%)): 82.1 ± 4%; TbTryS Activity ± 2σn-1 (%) ([3]; 30 µM): 119.0 ± 6.3; 8 (0.95) %; activity at 30 µM ([3]; read-out: TbTryS Activity ± 2σn-1 (%)): 119%
[O-][n+]1onc2cc(I)ccc21 [Compound J27] | 90.1 ± 5.9; 3% | 71.0 ± 8.0; 3% | 98.2 ± 5.6; 3% | –
CCCCN(CCCC)C(=O)c1cnc(N)o1 [ZVR103] | 100.0 ± 5.0; 2% | 99.4 ± 5.6; 4% | 82.4 ± 4.7; 3% | –
[O-][n+]1onc2c(Cl)cc(Cl)cc21 [Compound J26] | 95.8 ± 1.1; 3% | 88.0 ± 1.0; 3% | 104.9 ± 5.7; 3% | –
Cc1ccc2c(c1)no[n+]2[O-] [Compound J10] | 92.6 ± 10.8; 3% | 84.7 ± 10.5; 4% | 92.7 ± 3.4; 3% | –
c1ccc(CNCCCCCCCCCCNCc2ccccc2)cc1 [APC1-113] | 88.5 ± 6.6; 3% | 86.9 ± 6.3; 3% | 89.5 ± 3.6; 3% | –
Clc1ccc(CNCCCCCCCCNCc2ccc(Cl)cc2)cc1 [EAP1-43] | 87.9 ± 4.7; 4% | 78.0 ± 5.9; 4% | 69.7 ± 3.0; 4% | –
Brc1ccc(CNCCCCCCCCNCc2ccc(Br)cc2)cc1 [EAP1-46] | 93.7 ± 7.6; 3% | 61.8 ± 3.9; 3% | 73.4 ± 1.7; 3% | –
COc1cc2no[n+]([O-])c2cc1OC [Compound J32] | 98.1 ± 6.4; 4% | 72.7 ± 7.2; 4% | 93.4 ± 4.5; 4% | –
O=C(C1=C(O)C(=O)N(c2nc3ccc(Cl)cc3s2)C1c1ccc(F)cc1)c1ccc2c(c1)OCCO2 (centres unmarked) [ADMRC150] | 81.2 ± 4.1; 4% | 63.0 ± 6.8; 7% | 101.4 ± 8.2; 12% | % LiTryS inhibition ± 2σn-1 [2]: ~35%
O=[N+]([O-])c1ccc2c(c1)no[n+]2[O-] [Compound J16] | 76.5 ± 1.0; 3% | 80.1 ± 9.2; 4% | 92.6 ± 4.9; 3% | –
COc1ccc(C2C(C(=O)c3ccc4c(c3)OCCO4)=C(O)C(=O)N2c2nc3ccc(C)cc3s2)cc1OC (centres unmarked) [ADMRC153] | 109.3 ± 4.7; 4% | 87.6 ± 6.0; 4% | 103.3 ± 3.2; 3% | –
COc1ccc(CNCCCCCCCCCCNCc2ccc(OC)cc2)cc1 [APC1-115] | 76.1 ± 2.5; 4% | 79.8 ± 2.3; 3% | 69.0 ± 6.3; 3% | –
COc1cc(CNCCCNCc2ccc(OCc3ccccc3)c(OC)c2)ccc1OCc1ccccc1 [APC1-79] | 63.3 ± 2.7; 2% | 72.1 ± 3.4; 4 (1.27) % | 66.0 ± 2.9; 4% | –
CN1CCN(CCCN2c3ccccc3Sc3ccc(Cl)cc32)CC1 [prochlorperazine, reference compound] | – | – | – | inhibition of TcTryS [1]: none of the TryS was inhibited; reduction of TcTryS activity [1]: 34%
